# In patent publication US7060790B1, “Peptides and nucleic acids derived from Eisenia foetida and the use thereof” (Vlaams Interuniversitair Instituut voor Biotechnologie VZW, priority 1997, dated 2006):
# How the values were obtained:
# [1] = test system: CCF-1; experiment: Inhibition of CCF-1 mediated trypanolysis (T. brucei) by antibodies and carbohydrates; type: cell-based, Eisenia foetida; conditions: for CCF-1 mediated trypanolysis % Inhibition / CCF-1 mediated trypanolysis % Lysis: inhibitor 10 μg/ml, CCF-1 4 μg/ml
# Experimental: (§1) Purified parasites were resuspended at 4×10^6/ml PSG (PBS, consisting of 2.13 g NaCl, 8.45 g Na2HPO4 and 0.43 g NaH2PO4 per liter, supplemented with 1% glucose). […] of suspension were mixed with […] of different concentrations of CF, CCF-1 or TNF-α in 96-well culture plate. Quantification of the trypanolysis was based on the determination of parasite viability using Ethidium homodimer (EthD-1, Molecular Probes). EthD-1 is excluded by intact plasma membrane of live parasites. However, it enters the cells with damaged membrane and undergoes enhancement of fluorescence on binding nucleic acids, thereby producing a bright red fluorescence in dead cells. Briefly, after 4.5 hrs incubation at 30° C., […] of […] EthD-1 was added to the wells. The mean fluorescence intensity of triplicate cultures (±SD) was recorded 30 min later in a cytofluorimeter (Cytofluor II, PerSeptive Biosystems) using excitation/emission filters at 530±25/645±40 nm. A set of control was included in each experiments: (A) a parasite-free control to account for possible background fluorescence (B) a control of 100% lysis, prepared by treating the parasites with […] 2% saponin for about 10 min before adding EthD-1 (C) a control in which the trypanolytic component was replaced by PSG was considered as 0% lysis. (B) and (C) were used to build a standard curve and the % lysis in test samples was estimated by linear regression. In some assays parasite lysis was assessed by light microscopy counting the remaining parasites. Background lysis, i.e. lysis of trypanosomes within 5 hrs incubation at 30° C. in absence of lytic molecules, never exceeded 5–10%.
# (§2) For inhibition experiments CCF-1 or TNF-α were pre-incubated 1 hr at 30° C. with 10 […] of antibodies (anti-CCF1, anti-TIP or irrelevant mAb) or sugars (chitobiose, cellobiose, Sigma). All experiments were repeated at least 3 times.
# [2] = test system: trypanolytic activity (T. cruzi) of CF; experiment: Inhibition of the trypanolytic activity (T. cruzi) of CF by antibodies and carbohydrates; type: cell-based
# Experimental: as §1, §2
# [3] = target: T1, TNF-α (Mus musculus, UniProt P06804); experiment: Inhibition of TNF-α mediated trypanolysis (T. brucei) by antibodies and carbohydrates; type: cell-based; conditions: inhibitor 10 μg/ml, TNF-α 1.000 U/ml
# T1 sequence (P06804 80-235 limits assumed): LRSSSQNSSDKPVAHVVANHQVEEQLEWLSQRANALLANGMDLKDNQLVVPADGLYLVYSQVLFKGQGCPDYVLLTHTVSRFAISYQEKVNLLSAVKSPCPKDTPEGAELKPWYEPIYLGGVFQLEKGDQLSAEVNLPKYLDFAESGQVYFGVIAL
# Experimental: as §1, §2
# [4] = test system: CCF-1; experiment: Inhibition of the cytolytic activity of CCF-1 (L929) by antibodies and carbohydrates; type: cell-based, Eisenia foetida
# Experimental: To test whether the cytolytic activity of CCF-1 is mediated by a similar or a different domain as that one utilized for the trypanolytic activity, CCF-1 was preincubated with N,N′-diacetylchitobiose or anti-TNF/TIP antibodies and tested in the L-929 lysis assay (21). […] This is in sharp contrast to the cytolytic activity of TNF-α that is not influenced by anti-TNF/TIP antibodies nor by N,N′-diacetylchitobiose.
# [5] = test system: Trypanosoma brucei AnTat 1.1E; experiment: Trypanolytic assay on T. brucei; type: cell-based
# Experimental: Pleiomorphic and monomorphic Trypanosoma brucei AnTat 1.1E clone were provided by Dr N. Van Meirvenne (Institute of Tropical Medicine, Antwerp, Belgium).
# as §1
# [6] = test system: anti-CCF-1 mAb 12C9; experiment: Dot spot assay of tryptic peptides with anti-CCF-1 mAb; type: binding
# Experimental: The separated peptides obtained from HPLC purification of the tryptic digest of CCF-1 were analyzed for reactivity with the anti-CCF-1 mAb via a dot spot assay. […] The obtained sequence is shown in SEQ ID NO:1.
# [7] = Binding to chitobiose
# [8] = test system: T. cruzi; experiment: Trypanolytic activity on T. cruzi; type: cell-based; conditions: trypomastigote versus epimastigote forms
# Experimental: as §1, with “(B) and (C) were used to build a standard curve and the % lysis in test samples was estimated by linear regression.” left out, “Background lysis, i.e. lysis of trypanosomes within 5 hrs incubation at 30° C. in absence of lytic molecules, never exceeded 5–10%.” left out
# [9] = inhibitor 10 μg/ml, CF final dilution 1:4.000
# [10] = Experiment 1, inhibitor 10 μg/ml, CCF-1 4 μg/ml, L929
compound,measurement,setting,value
O=C[C@H](O)[C@@H](O)[C@H](O[C@@H]1O[C@H](CO)[C@@H](O)[C@H](O)[C@H]1O)[C@H](O)CO [Cellobiose],inhibition of the trypanolytic activity of CCF-1 (in words),[1],does not influence the trypanolytic activity of CCF-1
same,CCF-1 mediated trypanolysis % Inhibition,[1],0%
same,CCF-1 mediated trypanolysis % Lysis,[1],49%
same,inhibition at 10 µg/mL,"[2]; Trypanosoma cruzi, inhibitor 10 μg/ml, CF final dilution 1:4.000, read-out: CF-1 mediated trypanolysis % Inhibition",0%
same,CF-1 mediated trypanolysis % Lysis,[2]; [9],67%
same,TNF-α mediated trypanolysis % Lysis,[3],41%
same,inhibition at 10 µg/mL,[3],0%
"CC(=O)N[C@H]1[C@H](O[C@H]2[C@H](O)[C@@H](NC(C)=O)C(O)O[C@@H]2CO)O[C@H](CO)[C@@H](O)[C@@H]1O (stereo partly shown) [N,N′-diacetylchitobiose]",inhibition of the trypanolytic activity of CCF-1 (in words),[1],found to inhibit also the trypanolytic activity of CCF-1
same,CCF-1 mediated trypanolysis % Inhibition,[1],73%
same,CCF-1 mediated trypanolysis % Lysis,[1],3%
same,inhibition of the trypanolytic activity of rCCF-1 (in words),"[1]; rCCF-1, FIG. 3A, 3B",inhibits potently
same,inhibition of the T. cruzi lytic activity of CF (in words),[2],substantially decreased
same,CF-1 mediated trypanolysis % Inhibition,[2]; [9],70%
same,CF-1 mediated trypanolysis % Lysis,[2]; [9],19%
same,inhibition of the interaction of CCF-1 with L-929 cells (in words),[4]; CCF-1 preincubated with inhibitor,completely inhibited
same,CCF-1 mediated cytolysis % Inhibition,[4]; [10],100%
same,CCF-1 mediated cytolysis % Lysis,[4]; [10],0%
same,TNF-α mediated trypanolysis % Inhibition,[3],100%
same,TNF-α mediated trypanolysis % Lysis,[3],0%
NH2-SGEIDIIETIGNR-COOH (chain 1 H-SGEIDIIETIGNR-OH; chain 2 H-SGEIDIIETIGNR-OH; listed as Eisenia foetida) [CCF-1/TIP],trypanolytic activity on T. brucei (in words),[5],trypanolytic in a time- and dose-dependent way
same,trypanolytic activity compared with the TNF/TIP peptide,[5]; FIG. 1,reproducibly more trypanolytic than the TNF/TIP peptide
same,reactivity with the anti-CCF-1 mAb 12C9 in dot spot assay,[6],weakly positive
TNF-α,"binding to chitobiose / binding capacity towards N,N′-diacetylchitobiose",[7],bind to immobilized chitobiose
same,TNF-α mediated trypanolysis % Lysis,"[5]; TNF-α 1.000 U/ml, no inhibitor",41%
same,T. cruzi forms on which trypanolytic activity was recorded,[8],only be recorded on the trypomastigote but not the epimastigote forms
